Assay results as given in US4929736A, “Latent isocynate derivatives useful for deactivating enzymes” (Board of Trustees of the Wichita State University, priority 1986, dated 1990).
“Also recorded” adds a separate entry of the source.

These molecules were tested against T1, Human leukocyte elastase (HLE) (Homo sapiens, UniProt P08246) (assay: Spectrophotometric assay of HLE inactivation (in vitro)). Conditions: not given.
T1 construct: purchased Elastin Products, St. Louis, Mo
T1 sequence (P08246 30-267): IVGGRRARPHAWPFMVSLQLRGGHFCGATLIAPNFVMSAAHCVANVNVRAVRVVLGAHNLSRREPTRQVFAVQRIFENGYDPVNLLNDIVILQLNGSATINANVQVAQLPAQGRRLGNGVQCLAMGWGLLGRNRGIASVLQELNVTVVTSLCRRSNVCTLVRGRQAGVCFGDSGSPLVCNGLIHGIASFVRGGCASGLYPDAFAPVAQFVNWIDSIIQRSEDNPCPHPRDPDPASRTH
Assay type: biochemical
Description: The appropriate amount of inhibitor in acetonitrile was mixed with PPE in phosphate buffer solution and placed in a constant temperature bath. Aliquots were withdrawn at different time intervals and transferred to a cuvette containing 100 uL of substrate, 140 uL of acetonitrile, and 2 mL of phosphate buffer, pH 6.5. After incubating for 30 seconds, the absorbance change was monitored for two minutes at 347.5 nm. […] Controlled reactions for 100% PPE activity were run in the presence of acetonitrile. A similar procedure was followed for HLE.
The reaction of an irreversible inhibitor with PPE and HLE may be illustrated by the scheme shown below: [drawing 5] where EI is the noncovalently bound enzyme-inactivator complex and E-I is the final product with the inhibitor covalently bound to the enzyme. The kinetics data were analyzed according to known procedures. The apparent pseudo-first-order inactivation rate constants were determined from the slopes of semilogarithmic plots of enzymatic activity remaining versus time using the following equation: [formula] where Et /EO is the amount of active enzyme remaining after time "t".
The assay procedure used was the procedure identified relative to the tests above in Table I.
(kobsd) were determined by plotting in [E]t /[E]o vs time.

SMILES	Inhibition of HLE (in words)
COC(=O)[C@H](C)NC(=O)S(=O)(=O)O [Compound 2, Table II]	devoid of any inhibitory activity
COC(=O)CNC(=O)S(=O)(=O)O [Compound 1, Table II]	devoid of any inhibitory activity

Continued, values first:

Inhibition of HLE (in words)	SMILES
inactive	COC(=O)[C@H](CC[S+](C)[O-])NC(=O)S(=O)(=O)O (stereo partly drawn) [Compound 2, Table VI]
no inhibitory activity	CCC[C@@H](NC(=O)S(=O)(=O)O)C(=O)OC [Compound 5, Table II]
inactive	CC[S+]([O-])C[C@H](NC(=O)S(=O)(=O)O)C(=O)OC (stereo partly drawn) [Compound 4, Table VI]

Same assay, conditions: Table II monopotassium sulfonate salts

SMILES	k2 /Ki (HLE)
CCC[C@@H](NC(=O)S(=O)(=O)O)C(=O)OC [Compound 5, Table II]	inactive
COC(=O)[C@H](C)NC(=O)S(=O)(=O)O [Compound 2, Table II]	inactive
COC(=O)CNC(=O)S(=O)(=O)O [Compound 1, Table II]	inactive

Same assay, conditions: Table II monopotassium sulfonate salts; read-out: k2 /Ki (HLE)

SMILES	kinact/KI [M⁻¹ s⁻¹]
COC(=O)[C@H](Cc1ccccc1)NC(=O)S(=O)(=O)[O-].[K+] [Compound 9, Table II, N-(Sulfocarbonyl)-L-phenylalanine Methyl Ester, Monopotassium Salt]	530
COC(=O)[C@H](CCSC)NC(=O)S(=O)(=O)O [Compound 8, Table II]	260

Next, values leading:

kinact/KI [M⁻¹ s⁻¹]	SMILES
800	COC(=O)[C@@H](NC(=O)S(=O)(=O)O)C(C)C [Compound 3, Table II]
920	CCCC[C@H](NC(=O)S(=O)(=O)O)C(=O)OC [Compound 6, Table II]
260	COC(=O)[C@H](CC(C)C)NC(=O)S(=O)(=O)O [Compound 7, Table II]

Same assay, conditions: Table III; inactive: no inhibition at 243fold excess of inhibitor over enzyme, 10min incubation

SMILES	kobsd /[I], inhibition of leukocyte elastase
O=C(Nc1cccc(Cl)c1)S(=O)(=O)O [Compound 2, Table III]	inactive
O=C(Nc1ccccc1C(F)(F)F)S(=O)(=O)O [Compound 5, Table III]	inactive
O=C(Nc1cccc(F)c1)S(=O)(=O)O [Compound 4, Table III]	inactive
O=C(Nc1ccc(Cl)cc1)S(=O)(=O)O [Compound 3, Table III]	inactive
O=C(Nc1ccccc1)S(=O)(=O)O [Compound 1, Table III]	inactive
O=C(Nc1cccc(C(F)(F)F)c1)S(=O)(=O)O [Compound 6, Table III]	inactive
O=C(Nc1ccccc1C(F)(F)F)n1ccnc1 [Compound 9, Table III]	inactive

More lines, now with the values ahead:

kobsd /[I], inhibition of leukocyte elastase	SMILES
inactive	O=C(NCc1cccc(F)c1)n1ccnc1 [Compound 14]
inactive	O=C(Nc1cccc(C(F)(F)F)c1)n1ccnc1 [Compound 10, Table III]
inactive	O=C(NCc1cccc(C(F)(F)F)c1)n1ccnc1 [Compound 15]
inactive	O=C(Nc1cccc(F)c1)n1ccnc1 [Compound 8, Table III]
inactive	O=C(NCc1ccc(C(F)(F)F)cc1)n1ccnc1 [Compound 11, Table III]
inactive	O=C(Nc1ccc(C(F)(F)F)cc1)S(=O)(=O)O [Compound 7, Table III]
inactive	O=C(NCc1cccc(F)c1)S(=O)(=O)O [Compound 12, Table III]

Same assay, conditions: Table III; inactive: no inhibition at 243fold excess of inhibitor over enzyme, 10min incubation; read-out: kobsd /[I], inhibition of leukocyte elastase

SMILES	kinact/KI [M⁻¹ s⁻¹]
O=C(NCCc1cccc(F)c1)S(=O)(=O)O [Compound 17, Table III]	18
O=C(NCCc1ccccc1)n1ccnc1 [Compound 18]	35
O=C(NCCc1ccccc1)S(=O)(=O)O [Compound 16]	4

The remaining lines, values ahead:

kinact/KI [M⁻¹ s⁻¹]	SMILES
500	O=C(NCCc1ccccc1)n1ccccc1=O [Compound 21]
927	O=C(NCCc1ccccc1)ON1C(=O)CCC1=O [Compound 24]
11700	O=C(NCCc1cccc(C(F)(F)F)c1)n1ccccc1=O [Compound 23]
38	O=C(NCCc1cccc(F)c1)n1ccnc1 [Compound 19]
13500	O=C(NCCc1cccc(C(F)(F)F)c1)ON1C(=O)CCC1=O [Compound 26]
483	O=C(NCCc1cccc(C(F)(F)F)c1)n1ccnc1 [Compound 20]
823	O=C(NCCc1cccc(F)c1)ON1C(=O)CCC1=O [Compound 25]
317	O=C(NCCc1cccc(F)c1)n1ccccc1=O [Compound 22]

Same assay, conditions: Table IV, derivatives of phenylalanine; read-out: kobsd /[I], inhibition of leukocyte elastase

SMILES	kinact/KI [M⁻¹ s⁻¹]
COC(=O)C(Cc1cccc(F)c1)NC(=O)n1ccnc1 (stereo not drawn) [Compound 33]	318
COC(=O)C(Cc1cccc(C(F)(F)F)c1)NC(=O)S(=O)(=O)O (stereo not drawn) [Compound 32]	13
COC(=O)[C@H](Cc1ccccc1)NC(=O)S(=O)(=O)O [Compound 27]	550

Now from value to molecule:

kinact/KI [M⁻¹ s⁻¹]	SMILES
2070	COC(=O)[C@H](Cc1ccccc1)NC(=O)n1ccnc1 [Compound 28]
2330	COC(=O)[C@H](Cc1ccccc1)NC(=O)n1ccccc1=O [Compound 29]
6640	COC(=O)[C@H](Cc1ccccc1)NC(=O)ON1C(=O)CCC1=O [Compound 30]
57	COC(=O)C(Cc1cccc(F)c1)NC(=O)S(=O)(=O)O (stereo not drawn) [Compound 31]

Same assay, conditions: Table V, succinimide derivatives

SMILES	kobsd /[I], inhibition of leukocyte elastase
CS(=O)(=O)ON1C(=O)CCC1=O [H, OSO2CH3]	inactive

Same assay, conditions: Table V, succinimide derivatives; read-out: kobsd /[I], inhibition of leukocyte elastase

SMILES	kinact/KI [M⁻¹ s⁻¹]
O=C1CC(Cc2ccccc2)C(=O)N1OS(=O)(=O)c1ccc(Br)cc1 (stereo not drawn)	1650
O=C1CC(Cc2ccccc2)C(=O)N1OS(=O)(=O)c1ccccc1 (stereo not drawn)	1170
CCCCS(=O)(=O)ON1C(=O)CC(Cc2ccccc2)C1=O (stereo not drawn) [BENZYL, OSO2(CH2)3 CH3]	1680

Other lines, results leading:

kinact/KI [M⁻¹ s⁻¹]	SMILES
1610	Cc1ccc(S(=O)(=O)ON2C(=O)CC(Cc3ccccc3)C2=O)cc1 (stereo not drawn)
1270	CCCCCCCCS(=O)(=O)ON1C(=O)CC(Cc2ccccc2)C1=O (stereo not drawn) [BENZYL, OSO2(CH2)7 CH3]
323	CN(C)S(=O)(=O)ON1C(=O)CC(Cc2ccccc2)C1=O (stereo not drawn) [BENZYL, OSO2N(CH3)2]

Same assay, conditions: Table VI, sulfur-containing amino acid esters

SMILES	kobsd /[I], inhibition of HLE
COC(=O)[C@H](CC[S+](C)[O-])NC(=O)S(=O)(=O)O (stereo partly drawn) [Compound 2, Table VI]	inactive
CC[S+]([O-])C[C@H](NC(=O)S(=O)(=O)O)C(=O)OC (stereo partly drawn) [Compound 4, Table VI]	inactive
COC(=O)[C@H](CSSC[C@H](NC(=O)S(=O)(=O)O)C(=O)OC)NC(=O)S(=O)(=O)O [Compound 7, Table VI]	inactive
COC(=O)[C@H](CSCc1ccccc1)NC(=O)S(=O)(=O)O [Compound 6, Table VI]	inactive

Same assay, conditions: Table VI, sulfur-containing amino acid esters; read-out: kobsd /[I], inhibition of HLE

SMILES	kinact/KI [M⁻¹ s⁻¹]
COC(=O)CSC[C@H](NC(=O)n1ccnc1)C(=O)OC [Compound 11, Table VI]	15
CCSC[C@H](NC(=O)n1ccnc1)C(=O)OC [Compound 10, Table VI]	4230
COC(=O)[C@H](CSC)NC(=O)S(=O)(=O)O [Compound 5, Table VI]	1510

Results, then the molecule that gave them:

kinact/KI [M⁻¹ s⁻¹]	SMILES
4050	COC(=O)[C@H](CSC)NC(=O)n1ccnc1 [Compound 9, Table VI]
17	COC(=O)CSC[C@H](NC(=O)S(=O)(=O)O)C(=O)OC [Compound 8, Table VI]

Same assay, conditions: listed as L-leucine sulfonate salt

SMILES	Inhibition of HLE (in words)
COC(=O)[C@H](CC(C)C)NC(=O)S(=O)(=O)O [Compound 7, Table II]	also deactivate HLE but were not as effective; also recorded: also inactivate HLE, but not as efficiently; also recorded: effective inhibitors

Same assay, conditions: listed as L-methionine sulfonate salt

SMILES	Inhibition of HLE (in words)
COC(=O)[C@H](CCSC)NC(=O)S(=O)(=O)O [Compound 8, Table II]	also deactivate HLE but were not as effective; also recorded: also inactivate HLE, but not as efficiently; also recorded: effective inhibitors

Same assay, conditions: listed as L-norleucine sulfonate salt

SMILES	Inhibition of HLE (in words)
CCCC[C@H](NC(=O)S(=O)(=O)O)C(=O)OC [Compound 6, Table II]	very potent inhibitors; also recorded: effective inhibitors

Same assay, conditions: listed as L-phenylalanine sulfonate salt, Monopotassium Salt

SMILES	Inhibition of HLE (in words)
COC(=O)[C@H](Cc1ccccc1)NC(=O)S(=O)(=O)[O-].[K+] [Compound 9, Table II, N-(Sulfocarbonyl)-L-phenylalanine Methyl Ester, Monopotassium Salt]	also deactivate HLE but were not as effective; also recorded: also inactivate HLE, but not as efficiently; also recorded: effective inhibitors

Same assay, conditions: listed as L-valine sulfonate salt

SMILES	Inhibition of HLE (in words)
COC(=O)[C@@H](NC(=O)S(=O)(=O)O)C(C)C [Compound 3, Table II]	very potent inhibitors; also recorded: effective inhibitors
